According to patent publication US6608086B2, “Dihydropyridines and new uses thereof” (Synaptic Pharmaceutical Corporation, priority 1993, dated 2003):
Where two headings read alike, the source gives them in different places.

Experiments:
[1] = molecular target: T1, α1B Human Adrenergic Receptor (Homo sapiens, UniProt P35368); assay: Radioligand binding, [3H]prazosin, cloned human α1B adrenergic receptor; details: cloned human α1B receptor, LM(tk−) cell membranes
T1 construct: The entire coding region of α1B (1563 bp); expressed in transfected cells
T1 sequence (P35368 1-520): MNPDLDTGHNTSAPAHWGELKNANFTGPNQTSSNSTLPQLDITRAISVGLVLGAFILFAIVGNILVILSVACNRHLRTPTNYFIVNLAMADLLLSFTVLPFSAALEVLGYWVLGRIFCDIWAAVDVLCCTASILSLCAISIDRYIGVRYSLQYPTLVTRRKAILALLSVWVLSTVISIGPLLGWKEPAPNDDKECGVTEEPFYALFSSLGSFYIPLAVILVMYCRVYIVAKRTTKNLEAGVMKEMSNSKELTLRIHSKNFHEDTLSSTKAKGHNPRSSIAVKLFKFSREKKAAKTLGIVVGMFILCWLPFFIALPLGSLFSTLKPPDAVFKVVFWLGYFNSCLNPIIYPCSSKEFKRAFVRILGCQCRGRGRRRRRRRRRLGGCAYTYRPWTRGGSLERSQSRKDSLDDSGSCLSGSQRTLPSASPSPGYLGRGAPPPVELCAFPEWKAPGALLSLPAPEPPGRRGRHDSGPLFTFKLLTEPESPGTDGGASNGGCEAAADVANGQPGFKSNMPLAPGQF
Method in brief: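 Membranes from stably transfected LM(tk−) cells, resuspended in 50 mM Tris-HCl, 1 mM MgCl2, 0.1% ascorbic acid, pH 7.5, were incubated with 0.5 nM [3H]prazosin for 20 min at 37° C. Nonspecific binding defined with 10 μM phentolamine; bound ligand separated by GF/B filtration.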

[2] = molecular target: T2, α1C Human Adrenergic Receptor (Homo sapiens, UniProt P35348); assay: Radioligand binding, [3H]prazosin, cloned human α1C adrenergic receptor; details: cloned human α1C receptor, LM(tk−) cell membranes
T2 construct: The entire coding region of α1C (1401 bp); expressed in transfected cells
T2 sequence (P35348 1-466): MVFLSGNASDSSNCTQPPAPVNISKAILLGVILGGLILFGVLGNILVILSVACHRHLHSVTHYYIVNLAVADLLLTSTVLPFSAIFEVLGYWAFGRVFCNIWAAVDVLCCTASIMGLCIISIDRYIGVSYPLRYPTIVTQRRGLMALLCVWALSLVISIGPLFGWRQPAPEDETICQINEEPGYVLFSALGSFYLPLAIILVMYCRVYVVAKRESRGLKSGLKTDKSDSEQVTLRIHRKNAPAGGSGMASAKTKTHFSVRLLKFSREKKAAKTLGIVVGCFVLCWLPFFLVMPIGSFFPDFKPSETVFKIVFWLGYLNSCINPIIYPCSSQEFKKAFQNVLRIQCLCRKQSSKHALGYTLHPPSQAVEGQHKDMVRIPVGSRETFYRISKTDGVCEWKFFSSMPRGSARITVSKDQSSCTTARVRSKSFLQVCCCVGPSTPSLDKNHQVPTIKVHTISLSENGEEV
Method in brief: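 Read-out is filter-retained [3H]prazosin (0.5 nM) bound to membranes of LM(tk−) cells stably carrying the human α1C receptor. Incubation ran 20 min at 37° C. at pH 7.5, with 10 μM phentolamine marking nonspecific binding.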

α2A receptor = molecular target: T3, α2A receptor (Homo sapiens, UniProt P08913); assay: Competition binding, [3H]rauwolscine, human α2A receptor; details: [3H]rauwolscine, human α2A receptor, LM(tk−) cells; for Ki: read-out: pKi alpha-2 2a (converted)
T3 construct: host or cells: LM(tk-) cells, line L-α2A
T3 sequence (P08913 1-465): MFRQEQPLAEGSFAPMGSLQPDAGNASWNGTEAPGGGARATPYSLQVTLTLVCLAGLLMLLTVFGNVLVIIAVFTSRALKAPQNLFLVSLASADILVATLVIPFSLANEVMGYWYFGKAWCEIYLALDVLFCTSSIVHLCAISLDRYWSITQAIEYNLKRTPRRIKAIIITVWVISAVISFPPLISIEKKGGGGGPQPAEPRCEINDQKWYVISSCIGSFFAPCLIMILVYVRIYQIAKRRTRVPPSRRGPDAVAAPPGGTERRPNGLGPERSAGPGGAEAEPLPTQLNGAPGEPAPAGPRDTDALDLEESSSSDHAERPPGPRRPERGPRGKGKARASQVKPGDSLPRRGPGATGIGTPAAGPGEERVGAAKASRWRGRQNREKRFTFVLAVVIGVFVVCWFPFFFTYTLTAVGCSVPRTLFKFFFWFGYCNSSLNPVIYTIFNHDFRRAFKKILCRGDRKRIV
Method in brief: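 Equilibrium displacement of [3H]rauwolscine (0.5 nM) measured on membranes from stably transfected LM(tk−) lines, one per α2 subtype, in glycylglycine buffer at pH 7.6. Nonspecific binding set by 10 μM phentolamine; separation by filtration.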

[3] = read-out: pKi alpha-1 1b (converted)
[4] = read-out: pKi alpha-1 1c (converted)

Row | Compound | Ki ([1]; pKi alpha-1 1b) [nM] | Ki ([2]; pKi alpha-1 1c) [nM] | Ki (α2A receptor) [nM] | Ki [1, 3] [nM] | Ki [2, 4] [nM] | pKi alpha-1 1b [1] | pKi alpha-2 2a (α2A receptor)
1 | CC1=C(C(N)=O)C(c2ccc(S(C)(=O)=O)cc2)C(C(=O)NCCCN2CCC(c3ccccc3)(c3ccccc3)CC2)=C(C)N1 (stereo not drawn) [Example 115, 5-Carboxamido-1,4-4-dihydro-4-(4-methanesufonylphenyl)-2,6-dimethyl-3-(N-(3-(4,4-diphenylpiperidin-1-yl)propyl)carboxamido)-pyridine] | 1450 | 58.9 | 3980 | – | – | – | –
2 | CCC1=C(C(N)=O)C(c2ccc(S(C)(=O)=O)cc2)C(C(=O)NCCCN2CCC(c3ccccc3)(c3ccccc3)CC2)=C(CC)N1 (stereo not drawn) [Example 116, 5-Carboxamido-2,6-diethyl-1,4-dihydro-4-(4-methanesulfonylphenyl)-3-(N-(3-(4,4-diphenylpiperidin-1-yl)propyl)carboxamido)-pyridine] | 759 | 3.89 | 1450 | – | – | – | –
3 | COc1cccc(C2C(C(N)=O)=C(C)NC(C)=C2C(=O)NCCCN2CCC(c3ccccc3)(c3ccccc3)CC2)c1 (stereo not drawn) [Example 117, 5-Carboxamido-1,4-dihydro-4-(3-Methoxyphenyl)-2,6-dimethyl-3-(N-(3-(4,4-diphenylpiperidin-1-yl)propyl)carboxamido)-pyridine] | 562 | 27.5 | 955 | – | – | – | –
4 | CCC1=C(C(N)=O)C(c2ccc(S(C)(=O)=O)cc2)C(C(=O)NCCCN2CCC(c3ccccc3)(c3ccccc3)CC2)=C(C)N1 (stereo not drawn) [Example 118, 3-Carboxamido-2-ethyl-1,4-dihydro-4-(4-methanesulfonylphenyl)-6-methyl-3-(N-(3-(4,4-diphenylpiperidin-1-yl)propyl)carboxyamido)-pyridine] | 1780 | 9.55 | 3890 | – | – | – | –
5 | CCC1=C(C(N)=O)C(c2ccc([N+](=O)[O-])cc2)C(C(=O)NCCCN2CCN(c3ccccc3OC)CC2)=C(CC)N1 (stereo not drawn) [Example 125, 5-Carboxamido-2,6-diethyl-1,4-dihydro-3-(N-{3-[4-(2-methoxyphenyl)piperazin-1-yl]propyl})carboxamido-4-(4-nitrophenyl)pyridine] | – | – | 26.9 | 129 | 1.15 | – | –
6 | CC(C)C1=C(C(N)=O)C(c2ccc([N+](=O)[O-])cc2)C(C(=O)NCCCN2CCC(c3ccccc3)(c3ccccc3)CC2)=C(C(C)C)N1 (stereo not drawn) [Example 127] | – | 55 | – | – | – | 6.79 | 6.17
7 | CCC1=C(C(=O)NC)C(c2ccc([N+](=O)[O-])cc2)C(C(=O)NCCCN2CCC(c3ccccc3)(c3ccccc3)CC2)=C(CC)N1 (stereo not drawn) [Example 128, 2,6-Diethyl-1,4-dihydro-5-(N-methyl)carboxamido-4-(4-nitrophenyl)-3-{N-[3-(4,4-diphenylpiperidin-1-yl)propyl]}carboxamidopyridine] | 1050 | 3.39 | 457 | – | – | – | –
8 | CCC1=C(C(=O)OCCC#N)C(c2ccc([N+](=O)[O-])cc2)C(C(=O)NCCCN2CCC(c3ccccc3)(c3ccccc3)CC2)=C(COC)N1 (stereo not drawn) [Example 135] | – | – | 661 | 178 | 105 | – | –
9 | CCC1=C(C(=O)NCCCN2CCC(c3ccccc3)(c3ccccc3)CC2)C(c2ccc([N+](=O)[O-])cc2)C(C(=O)OC(C)(C)C)=C(COCCN=[N+]=[N-])N1 (stereo not drawn) [Example 139] | 141 | 23.4 | 832 | – | – | – | –
10 | CCC1=C(C(=O)OCCC#N)C(c2ccc([N+](=O)[O-])cc2)C(C(=O)NCCCN2CCC(c3ccccc3)(c3ccccc3)CC2)=C(COCCN=[N+]=[N-])N1 (stereo not drawn) [Example 141] | 33.1 | 5.37 | 603 | – | – | – | –
11 | CCNC(=O)C1=C(COCCN=[N+]=[N-])NC(CC)=C(C(=O)NCCCN2CCC(c3ccccc3)(c3ccccc3)CC2)C1c1ccc([N+](=O)[O-])cc1 (stereo not drawn) [Example 147, 2-((2-Azidoethyl)oxy)methyl-6-ethyl-3-(N-ethyl)carboxamido-1,4-dihydro-4-(4-nitro)phenyl-5-(N-(3-(4,4-diphenylpiperidin-1-yl-)propyl))carboxamidopyridine] | 257 | 11 | 871 | – | – | – | –
12 | CCC1=C(C(=O)NCCCN2CCC(c3ccccc3)(c3ccccc3)CC2)C(c2ccc([N+](=O)[O-])cc2)C(C(N)=O)=C(COCCN=[N+]=[N-])N1 (stereo not drawn) [Example 149, 2-((2-Azidoethyl)oxy)methyl-3-carboxamido-6-ethyl-1,4-dihydro-4-(4-nitro) phenyl-5-(N-(3-(4,4-diphenylpiperidin-1-yl)propyl))carboxamidopyridine] | 245 | 5.5 | 501 | – | – | – | –
13 | CCC1=C(C(=O)NCCCN2CCC(c3ccccc3)(c3ccccc3)CC2)C(c2ccc([N+](=O)[O-])cc2)C(C(=O)NC)=C(COCCN=[N+]=[N-])N1 (stereo not drawn) [Example 151, 2-((2-Azidoethyl)oxy)methyl-6-ethyl-1,4-dihydro-3-(N-methyl)carboxamido-4-(4-nitro)phenyl-5-(N-(3-(4,4-diphenylpiperidin-1-yl)propyl))carboxamidopyridine] | 355 | 12.3 | 562 | – | – | – | –
14 | CC1=C(C(=O)NCCCN2CCC(c3ccccc3)(c3ccccc3)CC2)C(c2ccc([N+](=O)[O-])cc2)C(C(=O)NC(C)C)=C(C)N1 (stereo not drawn) [Example 156, 1,4-Dihydro-3-(N-isopropyl) carboxamido-2,6-dimethyl-4-(4-nitrophenyl)-5-{N-[3-(^414-diphenylpiperidin-1-yl)propyl]}carboxamidopyridine] | 676 | 95.5 | 316 | – | – | – | –
15 | CC1=C(C(=O)NCCCN2CCC(c3ccccc3)(c3ccccc3)CC2)C(c2ccc([N+](=O)[O-])cc2)C(C(=O)OCCC#N)=C(C)N1 (stereo not drawn) [Example 160] | 138 | – | 457 | – | 7.94 | – | –
16 | CNC(=O)C1=C(C)NC(C)=C(C(=O)NCCCN2CCC(O)(c3ccccc3)CC2)C1c1ccc([N+](=O)[O-])cc1 (stereo not drawn) [Example 162, 1,4-Dihydro-3-{N-[3-(4-hydroxy-4-phenylpiperidin-1-yl)propyl]}carboxamido-2,6-dimethyl-5-(N-methyl)carboxamido-4-(4-nitrophenyl)pyridine] | 257 | 11.5 | 631 | – | – | – | –
